Reference: publication PMC12655733, “Design, Synthesis and Evaluation of the First 2-Alkynyl(aza)indole ^18F Probe Targeting α-Synuclein Aggregates” (Pharmaceuticals, 2025)
Read-outs that look alike come from different tables or passages of the source.

Tests used:
α-syn fibrils [1] = biological target: T1, α-syn fibrils (Homo sapiens, UniProt P37840); details: cited from earlier work
T1 construct: made in house; host or cells: Escherichia coli BL21(DE3)

Aβ fibrils = details: cited from earlier work
tau fibrils = details: cited from earlier work
α-syn fibrils [2] = biological target: T1, α-syn fibrils; assay: Inhibition of thioflavin T binding to α-syn fibrils (fluorescence competition), Ki determination
Method: (§1) Wild-type α-syn and Aβ1-42 were expressed in the Escherichia coli strain BL21(DE3) (Stratagene, La Jolla, CA, USA) and purified as described. […] For the Aβ1-42 peptide, the concentration was determined by a fluorometric method using the reactive compound fluorescamine (Sigma, San Jose, CA, USA) that reacts with primary amino groups to form a fluorescent product. The human Tau protein (isoform h2N4RTau) was expressed in the pET11d vector in the Escherichia coli strain BL21(DE3) (Stratagene, La Jolla, CA, USA) and purified as described.
(§2) For assembly into fibrils, α-syn was incubated in 50 mM Tris-HCl, pH 7.5, 150 mM KCl at 37 °C under continuous shaking for 4 days. Lyophilized Aβ1-42 was dissolved in 1,1,1,3,3,3-hexafluoro-2-propanol (HFIP) at a concentration of 0.2 mg/mL and incubated for 24 h at 37 °C to achieve complete solubilization. HFIP was evaporated under a nitrogen stream to obtain a dry film. To start assembly into fibrils, the dry peptide was resuspended in PBS pH 7.4, 10% (v/v) DMSO and incubated at 37 °C without shaking for 3 days. The Tau protein was assembled in fibrils in a PBS buffer containing 1 mM of DTT in the presence of 1/12 heparin (v/v) at 37 °C under shaking. […] Protein fibrils were systematically examined by transmission electron microscopy (TEM) in a Jeol 1400 transmission electron microscope following adsorption onto carbon-coated 200 mesh grids and negative staining with 1% uranyl acetate. The images were recorded with a Gatan Orius CCD camera (Gatan, Pleasanton, CA, USA). Finally, the percentage of α-syn or Aβ1-42 aggregated into fibrils was assessed by pelleting fibrils at 40,000× g for 20 min and by determining the concentration of soluble protein/peptide remaining in the supernatant.
(§3) The samples were incubated for 1 h at room temperature to achieve complete equilibration.

Aβ1-42 fibrils [3] = biological target: T2, Aβ1-42 fibrils (Homo sapiens, UniProt P05067); assay: Inhibition of thioflavin T binding to Aβ1-42 fibrils (fluorescence competition), Ki determination; details: calculated from IC50, competition with ThT 500 nM, fibrils 500 nM, mean ± SD of 3 experiments; read-out: Ki Aβ
T2 construct: Wild-type α-syn and Aβ1-42 were expressed; made in house; host or cells: Escherichia coli BL21(DE3)
Method: as §1, §2, §3

[4] = biological target: T3, Tau fibrils (isoform h2N4RTau) (Homo sapiens, UniProt P10636); assay: Inhibition of thioflavin T binding to Tau fibrils (fluorescence competition), Ki determination; details: calculated from IC50, competition with ThT 500 nM, fibrils 200 nM, mean ± SD of 3 experiments
T3 construct: made in house; host or cells: Escherichia coli BL21(DE3), pET11d vector
Method: as §1, §2, §3

α-syn fibrils [5] = biological target: T1, α-syn fibrils; assay: Direct fluorescence titration on α-syn fibrils: Kd and Bmax; type: binding; details: direct assay on fibrils, mean ± SD of 3 experiments
Excerpt: (§4) In view of the interesting properties of compounds 33–39, we decided to switch to azaindole structures and to study the impact of the position of the nitrogen atom in the 6-membered ring on binding to fibrils. At this step we measured, in addition to the Ki values, the direct binding of each compound to fibrils through the fluorescence in the fraction bound to fibrils, which allowed us to determine the affinity values (Kd, Table 1). […] We therefore prepared a fluorinated derivative of compound 43, i.e., 45.
(§5) Fresh solutions of each tested compound (2.5 mM in DMSO) were diluted in PBS pH 7.4 at concentrations ranging from 0.5 nM to 5 µM in the presence or absence of α-syn, Aβ1-42, or Tau fibrils (200 nM, 500 nM, or 200 nM, respectively) in a final volume of 2 mL. After 1 h incubation at room temperature, the binding of each compound to α-syn, Aβ1-42, or Tau fibrils was assessed by fluorescence measurements using the appropriate excitation/emission wavelengths (i.e., those yielding the highest fluorescence ratio between fibril-bound and free compound). For any given concentration of compound added to the fibrils, the concentrations of compound bound to the fibrils and free in solution were determined on the basis of the measured fluorescence. Since at each point of the titration: Fm = FB × B + FF × (T − B) where Fm is the measured fluorescence of the compound in the presence of fibrils at a given compound concentration T, FB is the specific molar fluorescence of the bound compound, FF is the specific molar fluorescence of the free compound, and B is the concentration of compound bound to the fibrils at any point of the titration. FF was determined by measuring the fluorescence of known compound concentrations in the absence of fibrils. FB was determined by measuring the maximum fluorescence of known compound concentrations upon saturation with α-syn, Aβ1-42, or Tau fibrils.
(§6) Therefore, at each point of the titration, the concentration of bound compound B could be determined and was B = (Fm − FF × T)/FB − FF. The B values thus determined versus the respective concentrations of free compound were analyzed by fitting to the Michaelis-Menten equation.

Aβ1-42 fibrils [6] = biological target: T2, Aβ1-42 fibrils; assay: Direct fluorescence titration on Aβ1-42 fibrils: Kd and Bmax; type: binding; details: direct assay on fibrils, mean ± SD of 3 experiments; read-out: Kd Aβ
Excerpt: as §4, §5, §6

[7] = biological target: T3, Tau fibrils (isoform h2N4RTau); assay: Direct fluorescence titration on Tau fibrils: Kd and Bmax; type: binding; details: direct assay on fibrils, mean ± SD of 3 experiments
Excerpt: as §4, §5, §6

α-syn fibrils [8] = biological target: T1, α-syn fibrils; assay: Dynamic PET imaging and ex vivo brain radioactivity in rats with α-syn fibrils implanted in the right striatum; details: Wistar rat
Excerpt: The next step in the characterization of our new PET tracer was to evaluate its ability to bind in vivo to α-syn fibrils. For this aim, we performed a simple preliminary imaging experiment in which the same α-syn fibrils as those used in in vitro experiments were surgically and unilaterally implanted in the brains of two adult Wistar rats. The accumulation of [^18F]45 after intravenous (i.v.) injection was compared, in each animal, between the implanted and intact non-implanted side. The fibrils were administered by stereotaxic injection into the right striatum, [^18F]45 was i.v. injected 1 day later, and image acquisition began at the time of injection using a microPET eXplore Vista (GE Healthcare, Buc, France)/CT system during 3 h. PET images were reconstructed and analyzed in three regions of interest, i.e., the left striatum without fibrils (C-ST), the right striatum with fibrils (I-ST), and the cerebellum (CE). At the end of imaging acquisition, each rat was sacrificed, and brain regions were removed, weighed, and their radioactivity measured.
PET imaging experiments were performed with [^18F]45 on two adult male Wistar rats weighing 250–300 g (Janvier, Le Genest-Saint-Isle, France). The animals were housed in a temperature (23 °C) and humidity (43%) controlled environment under a 12-h light-dark cycle with food and water available ad libitum, and experimental procedures were conducted in accordance with the requirements of the European Community Council Directive 2010/63/EU for the care of laboratory animals and with the authorization of the Regional Ethical Committee (Authorization N°2012-03-1).
The rats were scanned one hour after receiving an intra-cerebral administration of α-syn. They were anesthetized with isoflurane (4% in O2, 500 mL/min, Baxter, France), placed on a stereotaxic frame (Stoelting, Phymep, Paris, France) and maintained under isoflurane 2.5% (500 mL/min) during surgery. Body temperature was monitored and kept at 37 °C. Fibrils of α-syn were prepared as described above (solution of 10 mg/mL in PBS). This solution was administered in two sites of the right striatum of each rat using a 25 μL Hamilton Gastight syringe (Hamilton, Massy, France) with a 30-gauge needle (Phymep, Paris, France) connected to a perfusion system. […]
For the PET experiment, each rat was anesthetized with isoflurane (Baxter, Guyancourt, France), at 4–5% in O2 for induction and then 1.5–2% during scanning, and received an i.v. bolus injection of 42–46 MBq of [^18F]45 (molar activity 99.69 GBq/µmol) into the tail vein. […] The quantification of the tracer uptake was extracted from the last 6 120-s frames corresponding to 49–61 min of acquisition after tracer injection. […] PET images were reconstructed and analyzed using PMOD (3.403, PMOD Technologies, Zurich, Switzerland). […]

[9] = calculated from IC50, competition with ThT 500 nM, fibrils 200 nM, mean ± SD of 3 experiments

T2 sequence (P05067 672-713): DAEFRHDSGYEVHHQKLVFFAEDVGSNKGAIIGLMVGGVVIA
T3 sequence (P10636 1-441 isoform P10636-8): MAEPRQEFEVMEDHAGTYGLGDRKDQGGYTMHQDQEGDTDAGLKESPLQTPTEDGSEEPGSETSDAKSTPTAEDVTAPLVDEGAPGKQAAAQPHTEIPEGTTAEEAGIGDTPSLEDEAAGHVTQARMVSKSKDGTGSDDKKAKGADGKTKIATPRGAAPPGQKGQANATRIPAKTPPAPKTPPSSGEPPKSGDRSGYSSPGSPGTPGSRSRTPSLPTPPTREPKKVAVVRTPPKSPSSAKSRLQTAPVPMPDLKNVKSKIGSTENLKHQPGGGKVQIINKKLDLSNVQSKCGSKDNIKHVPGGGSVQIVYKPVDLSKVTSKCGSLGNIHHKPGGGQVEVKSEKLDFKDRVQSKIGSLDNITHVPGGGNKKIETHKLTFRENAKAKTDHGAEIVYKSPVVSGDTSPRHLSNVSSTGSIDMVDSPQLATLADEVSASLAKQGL

| SMILES | Ki (α-syn fibrils [2]) | Ki (Aβ1-42 fibrils [3]) | Ki [4] | further results |
| --- | --- | --- | --- | --- |
| O=C1/C(=C\C=C\c2ccc([N+](=O)[O-])cc2)c2ccccc2N1Cc1ccc(OCC[18F])cc1 [[^18F]indolone] | – | – | – | Ki (α-syn fibrils [1]; in vitro): 10 nM; selectivity towards Aβ fibrils (Aβ fibrils; α-syn versus Aβ): 27 fold; selectivity for α-syn over tau fibrils (tau fibrils; α-syn versus tau): 5 fold |
| C(#Cc1cc2ccccc2[nH]1)c1ccccc1 [Compound 31] | > 100 nM | 68.9 ± 30 nM | 19.6 ± 2 nM | – |
| Nc1cccc(C#Cc2cc3ccccc3[nH]2)c1 [Compound 36] | > 100 nM | 15.3 ± 7 nM | 7.2 ± 1 nM | – |
| CN(c1ccc(/C=C/c2nc3ccccc3o2)cc1)S(=O)(=O)c1ccccc1[18F] [[^18F]2FBox] | – | – | – | Kd (α-syn fibrils [1]; in vitro, read-out: Kd for α-syn fibrils): 3.3 nM; Kd (Aβ fibrils; in vitro, read-out: Kd for Aβ): 145 nM |
| COc1ccc2[nH]c(C#Cc3ccc(N(C)C)cc3)cc2c1 [Compound 39] | 21.7 ± 6 nM | – | 12.7 ± 1 nM | – |
| CN([11CH3])c1ccc(-c2cc(-c3ccnc(Br)c3)[nH]n2)cc1 [[^11C]MODAG-001] | – | – | – | better affinity for α-syn as compared to Aβ and tau fibrils (α-syn fibrils [1]; in vitro): around 20 times |
| COc1ccc(C#Cc2cc3ccccc3[nH]2)cc1 [Compound 34] | 96.7 ± 14 nM | 68.9 ± 14 nM | 33.1 ± 7 nM | – |
| CN(C)c1ccc(C#Cc2cc3ccncc3[nH]2)cc1 [Compound 42] | – | 91.5 ± 11 nM | 8.4 ± 1 nM | Ki (α-syn fibrils [2]; [9]): 28.7 ± 8 nM; Kd (α-syn fibrils [5]): 1.4 ± 1 nM; Kd (Aβ1-42 fibrils [6]): 5.2 ± 3 nM; Kd [7]: 0.49 ± 0.2 nM |
| Cc1ccc(C#Cc2cc3ccccc3[nH]2)cc1 [Compound 32] | > 100 nM | 37.9 ± 13 nM | 13.1 ± 2 nM | – |
| Cc1cc2nc(/C=C/c3ccc(O)c(Br)c3)sc2cc1N(C)CCOCC[18F] [[^18F]F0502B] | – | – | – | Kd (α-syn fibrils [1]; read-out: Kd for α-syn): ~10 nM; Kd (Aβ fibrils; read-out: Kd for Aβ fibrils): ~100 nM; Kd (tau fibrils): ~100 nM |
| CN(C)c1ccc(C#Cc2cc3cnccc3[nH]2)cc1 [Compound 44] | 26 ± 16 nM | 21.3 ± 7 nM | – | Kd (α-syn fibrils [5]): 1 ± 0.5 nM; Kd (Aβ1-42 fibrils [6]): 3.6 ± 2 nM; Kd [7]: 2.4 ± 0.9 nM |
| CN(C)c1ccc(C#Cc2cc3ncccc3[nH]2)cc1 [Compound 41] | – | 21.3 ± 7 nM | 12 ± 1 nM | Ki (α-syn fibrils [2]; [9]): 26 ± 16 nM; Kd (α-syn fibrils [5]): 3.25 ± 0.2 nM; Kd (Aβ1-42 fibrils [6]): 2.9 ± 2 nM; Kd [7]: 0.13 ± 0.05 nM |
| CN(C)c1ccc(C#Cc2cc3cc(OCCF)ccc3[nH]2)cc1 [Compound 40] | > 100 nM | 10.1 ± 5 nM | 15.8 ± 3 nM | – |
| CCc1ccc(C#Cc2cc3ccccc3[nH]2)cc1 [Compound 33] | 35.9 ± 5 nM | 3.3 ± 1 nM | 32.9 ± 8 nM | – |
| COc1cccc2ccc(/C=N/N=C/c3ccc4cccc(OCC[18F])c4n3)nc12 [[^18F]BQ2] | – | – | – | Ki (α-syn fibrils [1]): ~10 nM; Ki for Aβ (Aβ fibrils; compared with Ki for α-syn): same Ki for Aβ |
| CN(C)c1ccc(C#Cc2cc3ccccc3[nH]2)cc1 [Compound 38] | 36 ± 7 nM | 64.4 ± 40 nM | 27.6 ± 3 nM | – |
| CNc1ccc(C#Cc2cc3ccccc3[nH]2)cc1 [Compound 37] | 47.8 ± 9 nM | 6.6 ± 2 nM | 17.2 ± 3 nM | – |
| Nc1ccc(C#Cc2cc3ccccc3[nH]2)cc1 [Compound 35] | 40.4 ± 6 nM | 26.2 ± 11 nM | 123 ± 28 nM | – |
| [18F]c1ccc2nc(/C=C/c3ccc(N4CCOCC4)cc3)sc2c1 [[^18F]MFSB] | – | – | – | Kd (α-syn fibrils [1]; read-out: Kd for α-syn): ~10 nM; Kd (Aβ fibrils; read-out: Kd for Aβ fibrils): ~100 nM; Kd (tau fibrils): ~100 nM |
| CN(CC[18F])c1ccc(C#Cc2cc3cccnc3[nH]2)cc1 [[^18F]45] | – | – | – | radioactivity accumulation in the three brain regions (CE, I-ST, C-ST) at the end of imaging (α-syn fibrils [8]; ex vivo γ-counting after PET, n = 2): identical radioactivity accumulation; ability to cross the blood–brain barrier (α-syn fibrils [8]; i.v. 42–46 MBq, dynamic PET 3 h): able to cross the blood–brain barrier; brain uptake kinetics (time-activity curves) (α-syn fibrils [8]; i.v. 42–46 MBq, dynamic PET 3 h, CE, I-ST, C-ST): slow uptake and almost no washout; specificity of brain uptake / in vivo binding to implanted α-syn fibrils (α-syn fibrils [8]; α-syn fibrils in right striatum, i.v. 42–46 MBq): non-specific uptake was observed |
